# Measured values published in the NIST ThermoML archive (doi:10.1016/j.jct.2006.02.008).
# Numbers after ± are expanded uncertainties.
# Experiments:
# [1] = refractive index (Na D-line) (dimensionless); conditions: 293.2 K; 101.33 kPa; Liquid; Standard Abbe refractometry
SMILES,refractive index [1],"mass density (293.2 K, 101.33 kPa, Liquid, Pycnometric method) [kg/m3]","Normal melting temperature (Crystal, visual observation) [°C]"
CCOC(=O)c1ccccc1C(=O)OCC [diethyl phthalate],1.5016 ± 0.0007,1118.2 ± 1,–
O=C1C=CC(=O)O1 [maleic anhydride],–,–,52.7 ± 0.5
